Measured values taken from patent US20250320193A1, “OXOISOINDOLINYL SUBSTITUTED PIPERIDINEDIONE DERIVATIVE AND USE THEREOF” (GLUETACS THERAPEUTICS (SHANGHAI) CO., LTD., priority 2022, published 2025).

Columns and labels:
Assay type in all cases: cell-based
Conditions in all cases: hPBMC, compound 500 nM, 24 hours, Western blot
IKZF1 = IKZF1 (Homo sapiens (Human), UniProt Q13422+Q96SW2); test: Western blot, substrate protein expression in hPBMC: IKZF1
Protocol: (§1) The effect of the compounds of the present disclosure on the expression of target proteins in cells was detected using conventional Western blot analysis.
(§2) Human peripheral blood mononuclear cells (hPBMCs) at a density of 1×10^6 cells/mL were thawed according to the PBMC Recovery Protocol (Milecell Biotechnologies Inc, Shanghai). […] After 24 hours of compounds treatment, cells were harvested and lysed in RIPA protein lysate containing phosphatase inhibitors on ice for 30-60 min, followed by centrifugation. The supernatant was aspirated as the extracted total cell protein. The protein concentration of the supernatant was determined using the conventional BCA (Bicinchoninic Acid) assay. The supernatant was then mixed with 4× SDS sample loading buffer, denatured at 95° C. for 5 minutes, and then subjected to SDS-PAGE electrophoresis on a polyacrylamide gel. Proteins were then transferred to a nitrocellulose (NC) membrane, blocked at room temperature for 1-2 h, and processed for antibody incubation and detection according to the manufacturer's instructions (Cell Signaling Technology).
(§3) Half-Maximal Degradation Concentration value (the drug concentration required for degrading proteins by 50%, abbreviated as DC50) reads method: comparing the grayscale values of Western blot bands from drug-treated samples (protein degrader compounds) with those from blank (DMSO-treated) controls, and identifying the drug concentration range at which the grayscale value is half that of the DMSO-treated control bands.
(§4) DC50 values can be calculated using ImageJ software to measure grayscale values of Western blot bands from drug-treated samples. The relationship curve between drug concentration and grayscale values is fitted to estimate the drug concentration corresponding to half the grayscale value.
(§5) Target protein remaining (%) refers to the percentage of target protein remaining in hPBMC cells after treatment with protein degrader compounds.
(§6) Calculation method for protein remaining (%): Use ImageJ software to measure grayscale values of Western blot bands from drug (protein degrader)-treated samples. The grayscale value of drug-treated bands is divided by that of internal control protein bands, and the resulting quotient is normalized to obtain the relative percentage of remaining target protein after protein degrader treatment.
(§7) Target protein degradation rate (%)=100%-target protein remaining (%).

IKZF3 = IKZF3 (Homo sapiens (Human), UniProt Q96SW2+Q9UKT9); test: Western blot, substrate protein expression in hPBMC: IKZF3
Sequence of IKZF3 (Q9UKT9 whole entry): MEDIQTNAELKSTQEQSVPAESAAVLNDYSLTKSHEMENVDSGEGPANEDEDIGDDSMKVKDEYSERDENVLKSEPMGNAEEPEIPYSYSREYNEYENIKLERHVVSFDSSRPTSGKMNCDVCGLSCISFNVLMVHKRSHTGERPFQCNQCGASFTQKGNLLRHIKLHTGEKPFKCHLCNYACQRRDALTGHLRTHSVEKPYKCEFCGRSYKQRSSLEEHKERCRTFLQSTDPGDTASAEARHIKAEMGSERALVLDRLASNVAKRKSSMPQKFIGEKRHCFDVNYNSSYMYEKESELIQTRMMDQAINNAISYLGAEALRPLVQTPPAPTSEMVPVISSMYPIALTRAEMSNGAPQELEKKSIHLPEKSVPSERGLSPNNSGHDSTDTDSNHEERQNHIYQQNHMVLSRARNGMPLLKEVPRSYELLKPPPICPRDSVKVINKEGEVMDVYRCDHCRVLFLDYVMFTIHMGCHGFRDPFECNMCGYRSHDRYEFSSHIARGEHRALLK
Sequence of IKZF3 (Q96SW2 whole entry): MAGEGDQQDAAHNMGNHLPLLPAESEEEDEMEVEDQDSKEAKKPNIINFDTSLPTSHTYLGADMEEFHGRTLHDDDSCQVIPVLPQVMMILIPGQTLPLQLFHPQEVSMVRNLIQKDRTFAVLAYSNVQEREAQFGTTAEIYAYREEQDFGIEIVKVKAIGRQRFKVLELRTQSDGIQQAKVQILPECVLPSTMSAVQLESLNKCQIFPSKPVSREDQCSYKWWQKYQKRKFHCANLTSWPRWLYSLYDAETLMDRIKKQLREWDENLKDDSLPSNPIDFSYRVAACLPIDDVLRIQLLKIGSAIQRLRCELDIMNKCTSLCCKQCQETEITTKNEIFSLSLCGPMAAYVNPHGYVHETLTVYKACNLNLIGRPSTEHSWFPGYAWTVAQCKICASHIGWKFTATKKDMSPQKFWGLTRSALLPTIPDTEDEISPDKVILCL
Sequence of IKZF3 (Q16531 whole entry partner): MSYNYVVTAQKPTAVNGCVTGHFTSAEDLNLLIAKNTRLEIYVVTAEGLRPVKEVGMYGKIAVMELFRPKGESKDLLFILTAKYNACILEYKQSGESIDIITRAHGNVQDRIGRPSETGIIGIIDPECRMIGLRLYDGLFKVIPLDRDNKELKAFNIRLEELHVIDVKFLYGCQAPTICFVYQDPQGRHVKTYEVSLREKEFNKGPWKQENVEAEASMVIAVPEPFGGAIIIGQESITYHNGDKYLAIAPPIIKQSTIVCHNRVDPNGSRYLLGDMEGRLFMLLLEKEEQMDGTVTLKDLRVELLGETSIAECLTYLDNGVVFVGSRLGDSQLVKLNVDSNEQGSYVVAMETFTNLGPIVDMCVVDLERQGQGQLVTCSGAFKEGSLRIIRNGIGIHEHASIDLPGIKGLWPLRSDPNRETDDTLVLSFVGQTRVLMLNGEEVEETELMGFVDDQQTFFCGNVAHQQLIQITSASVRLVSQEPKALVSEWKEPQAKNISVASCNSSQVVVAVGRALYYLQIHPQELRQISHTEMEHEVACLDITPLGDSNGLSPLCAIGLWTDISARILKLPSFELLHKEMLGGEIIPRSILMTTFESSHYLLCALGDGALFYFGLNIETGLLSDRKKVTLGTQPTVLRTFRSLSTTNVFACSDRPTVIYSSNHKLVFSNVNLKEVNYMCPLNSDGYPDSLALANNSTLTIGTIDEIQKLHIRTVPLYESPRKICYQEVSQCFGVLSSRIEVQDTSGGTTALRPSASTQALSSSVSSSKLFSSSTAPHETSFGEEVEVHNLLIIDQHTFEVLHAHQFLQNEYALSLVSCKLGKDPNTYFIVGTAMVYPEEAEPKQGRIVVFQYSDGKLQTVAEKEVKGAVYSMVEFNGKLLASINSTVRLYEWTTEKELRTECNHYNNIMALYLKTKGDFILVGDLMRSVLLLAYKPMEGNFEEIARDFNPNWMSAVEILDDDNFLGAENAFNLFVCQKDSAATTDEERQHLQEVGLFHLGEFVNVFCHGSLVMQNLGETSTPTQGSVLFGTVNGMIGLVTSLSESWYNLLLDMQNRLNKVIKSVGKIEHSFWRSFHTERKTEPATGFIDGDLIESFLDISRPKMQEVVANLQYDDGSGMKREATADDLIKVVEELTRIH
Protocol: as §1, §2, §3, §4, §5, §6, §7

GSPT1 = GSPT1 (Homo sapiens (Human), UniProt P15170+Q96SW2); test: Western blot, substrate protein expression in hPBMC: GSPT1
Sequence of GSPT1 (P15170 whole entry): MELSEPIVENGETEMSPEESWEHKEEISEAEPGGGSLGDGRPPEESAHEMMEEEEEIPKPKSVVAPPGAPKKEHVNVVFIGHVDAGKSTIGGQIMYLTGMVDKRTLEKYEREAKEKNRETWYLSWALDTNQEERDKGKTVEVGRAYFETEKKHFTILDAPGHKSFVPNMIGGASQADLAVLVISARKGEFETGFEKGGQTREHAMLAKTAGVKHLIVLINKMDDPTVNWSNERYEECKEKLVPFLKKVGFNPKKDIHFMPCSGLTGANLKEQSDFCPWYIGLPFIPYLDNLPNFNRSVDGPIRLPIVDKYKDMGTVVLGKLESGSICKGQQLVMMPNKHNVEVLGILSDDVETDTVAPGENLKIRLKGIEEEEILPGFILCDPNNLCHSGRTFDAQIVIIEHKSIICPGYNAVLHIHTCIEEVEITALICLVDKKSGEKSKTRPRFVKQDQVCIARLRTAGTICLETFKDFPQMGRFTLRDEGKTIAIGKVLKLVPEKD
Sequence of GSPT1 (Q96SW2 whole entry): as the sequence (Q96SW2 whole entry) above
Sequence of GSPT1 (Q16531 whole entry partner): as the sequence (Q16531 whole entry partner) above
Protocol: as §1, §2, §3, §4, §5, §6, §7

Sequence of IKZF1 (Q13422 whole entry): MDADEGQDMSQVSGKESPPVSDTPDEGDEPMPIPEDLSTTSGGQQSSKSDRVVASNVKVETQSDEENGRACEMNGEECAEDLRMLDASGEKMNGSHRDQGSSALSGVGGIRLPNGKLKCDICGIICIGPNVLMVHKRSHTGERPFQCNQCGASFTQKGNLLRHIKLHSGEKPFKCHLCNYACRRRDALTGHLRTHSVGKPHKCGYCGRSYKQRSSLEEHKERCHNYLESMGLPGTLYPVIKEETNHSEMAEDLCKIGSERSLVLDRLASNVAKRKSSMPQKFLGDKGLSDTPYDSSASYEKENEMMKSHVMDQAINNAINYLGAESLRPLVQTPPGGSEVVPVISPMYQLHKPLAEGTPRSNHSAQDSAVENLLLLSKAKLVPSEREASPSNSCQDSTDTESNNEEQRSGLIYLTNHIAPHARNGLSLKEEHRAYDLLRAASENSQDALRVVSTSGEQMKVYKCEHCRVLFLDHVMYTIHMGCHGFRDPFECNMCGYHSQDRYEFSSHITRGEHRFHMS
Sequence of IKZF1 (Q96SW2 whole entry): as the sequence (Q96SW2 whole entry) above
Sequence of IKZF1 (Q16531 whole entry partner): as the sequence (Q16531 whole entry partner) above

For `O=C1CCC(N2C(=O)c3ccc(C(=O)N4CCC(N(c5ccccc5)c5ccccn5)CC4)cc3C2=O)C(=O)N1` (stereo not drawn) [GT-05925, 2-(2,6-dioxopiperidin-3-yl)-5-(4-(phenyl(pyridin-2-yl)amino)piperidine-1-carbonyl) isoindoline-1,3-dione], the “substrate protein remaining % IKZF1” value (IKZF1) was “B (B represents substrate protein remaining % > 50%)”, the “substrate protein remaining % IKZF3” value (IKZF3) was “B (B represents substrate protein remaining % > 50%)” and the “substrate protein remaining % GSPT1” value (GSPT1) was “A (A represents 0% ≤ substrate protein remaining % ≤ 50%)”.

With `O=C1CCC(N2C(=O)c3ccc(C(=O)N4CCC(N(c5ccccc5)c5ccccc5)CC4)cc3C2=O)C(=O)N1` (stereo not drawn) [GT-05928, 2-(2,6-dioxopiperidin-3-yl)-5-(4-(diphenylamino)piperidine-1-carbonyl) isoindoline-1,3-dione] the “substrate protein remaining % IKZF1” value (IKZF1) was “B (B represents substrate protein remaining % > 50%)”, the “substrate protein remaining % IKZF3” value (IKZF3) was “B (B represents substrate protein remaining % > 50%)” and the “substrate protein remaining % GSPT1” value (GSPT1) was “A (A represents 0% ≤ substrate protein remaining % ≤ 50%)”.

For `O=C1CCC(N2C(=O)c3cc(F)c(N4C5CCC4CN(C(c4ccccc4)c4ccccc4)C5)cc3C2=O)C(=O)N1` (stereo not drawn) [GT-05932, 5-(3-benzhydryl-3,8-diazabicyclo[3.2.1]octan-8-yl)-2-(2,6-dioxopiperidin-3-yl)-6-fluoroisoindoline-1,3-dione], the “substrate protein remaining % IKZF1” value (IKZF1) was “B (B represents substrate protein remaining % > 50%)”, the “substrate protein remaining % IKZF3” value (IKZF3) was “B (B represents substrate protein remaining % > 50%)” and the “substrate protein remaining % GSPT1” value (GSPT1) was “A (A represents 0% ≤ substrate protein remaining % ≤ 50%)”.

`O=C1CCC(N2C(=O)c3cc(F)c(N4CC5CC(C4)N5C(c4ccccc4)c4ccccc4)cc3C2=O)C(=O)N1` (stereo not drawn) [GT-05934, 5-(6-benzhydryl-3,6-diazabicyclo[3.1.1]heptan-3-yl)-2-(2,6-dioxopiperidin-3-yl)-6-fluoroisoindoline-1,3-dione] was tested, and the “substrate protein remaining % IKZF1” value (IKZF1) was “B (B represents substrate protein remaining % > 50%)”, the “substrate protein remaining % IKZF3” value (IKZF3) was “A (A represents 0% ≤ substrate protein remaining % ≤ 50%)” and the “substrate protein remaining % GSPT1” value (GSPT1) was “A (A represents 0% ≤ substrate protein remaining % ≤ 50%)”.

For `O=C1CCC(N2C(=O)c3ccc(N4C5CCC4CN(C(c4ccccc4)c4ccccc4)C5)cc3C2=O)C(=O)N1` (stereo not drawn) [GT-05937, 5-(3-benzhydryl-3,8-diazabicyclo[3.2.1]octan-8-yl)-2-(2,6-dioxopiperidin-3-yl) isoindoline-1,3-dione], the “substrate protein remaining % IKZF1” value (IKZF1) was “B (B represents substrate protein remaining % > 50%)”, the “substrate protein remaining % IKZF3” value (IKZF3) was “B (B represents substrate protein remaining % > 50%)” and the “substrate protein remaining % GSPT1” value (GSPT1) was “A (A represents 0% ≤ substrate protein remaining % ≤ 50%)”.

With `O=C1CCC(N2C(=O)c3ccc(N4C5CC4CN(C(c4ccccc4)c4ccccc4)C5)cc3C2=O)C(=O)N1` (stereo not drawn) [GT-05938, 5-(3-benzhydryl-3,6-diazabicyclo[3.1.1]heptan-6-yl)-2-(2,6-dioxopiperidin-3-yl) isoindoline-1,3-dione] the “substrate protein remaining % IKZF1” value (IKZF1) was “B (B represents substrate protein remaining % > 50%)”, the “substrate protein remaining % IKZF3” value (IKZF3) was “B (B represents substrate protein remaining % > 50%)” and the “substrate protein remaining % GSPT1” value (GSPT1) was “A (A represents 0% ≤ substrate protein remaining % ≤ 50%)”.

In the case of `O=C1CCC(N2C(=O)c3ccc(CN4C[C@H]5C[C@@H]4CN5C(c4ccccc4)c4ccccc4)cc3C2=O)C(=O)N1` (stereo partly drawn) [GT-05959, 5-(((1R,4R)-5-benzhydryl-2,5-diazabicyclo[2.2.1]heptan-2-yl)methyl)-2-(2,6-dioxopiperidin-3-yl) isoindoline-1,3-dione], the “substrate protein remaining % IKZF1” value (IKZF1) is reported as “B (B represents substrate protein remaining % > 50%)”, the “substrate protein remaining % IKZF3” value (IKZF3) is reported as “B (B represents substrate protein remaining % > 50%)” and the “substrate protein remaining % GSPT1” value (GSPT1) is reported as “A (A represents 0% ≤ substrate protein remaining % ≤ 50%)”.

`CC1CN(Cc2ccc3c(c2)C(=O)N(C2CCC(=O)NC2=O)C3=O)CC(C)N1C(c1ccccc1)c1ccccc1` (stereo not drawn) [GT-05968, 5-((4-benzhydryl-3,5-dimethylpiperazin-1-yl)methyl)-2-(2,6-dioxopiperidin-3-yl) isoindoline-1,3-dione] was tested, and the “substrate protein remaining % IKZF1” value (IKZF1) was “B (B represents substrate protein remaining % > 50%)”, the “substrate protein remaining % IKZF3” value (IKZF3) was “B (B represents substrate protein remaining % > 50%)” and the “substrate protein remaining % GSPT1” value (GSPT1) was “A (A represents 0% ≤ substrate protein remaining % ≤ 50%)”.

In the case of `O=C1CCC(N2C(=O)c3ccc(C(=O)N4CC5CCC(C4)N5C(c4ccccc4)c4ccccc4)cc3C2=O)C(=O)N1` (stereo not drawn) [GT-05982, 5-(8-benzhydryl-3,8-diazabicyclo[3.2.1]octane-3-carbonyl)-2-(2,6-dioxopiperidin-3-yl) isoindoline-1,3-dione], the “substrate protein remaining % IKZF1” value (IKZF1) is reported as “B (B represents substrate protein remaining % > 50%)”, the “substrate protein remaining % IKZF3” value (IKZF3) is reported as “B (B represents substrate protein remaining % > 50%)” and the “substrate protein remaining % GSPT1” value (GSPT1) is reported as “A (A represents 0% ≤ substrate protein remaining % ≤ 50%)”.

With `C[C@@H]1CN(C(c2ccccc2)c2ccccc2)CCN1Cc1ccc2c(c1)C(=O)N(C1CCC(=O)NC1=O)C2=O` (stereo partly drawn) [GT-06047, 5-(((R)-4-benzhydryl-2-methylpiperazin-1-yl)methyl)-2-(2,6-dioxopiperidin-3-yl) isoindoline-1,3-dione] the “substrate protein remaining % IKZF1” value (IKZF1) was “B (B represents substrate protein remaining % > 50%)”, the “substrate protein remaining % IKZF3” value (IKZF3) was “B (B represents substrate protein remaining % > 50%)” and the “substrate protein remaining % GSPT1” value (GSPT1) was “A (A represents 0% ≤ substrate protein remaining % ≤ 50%)”.

`O=C1CCC(N2C(=O)c3ccc(CN4CCN(C5c6cc(Cl)ccc6-c6ccc(Cl)cc65)CC4)cc3C2=O)C(=O)N1` (stereo not drawn) [GT-06049, 5-((4-(2,7-dichloro-9H-fluoren-9-yl)piperazin-1-yl)methyl)-2-(2,6-dioxopiperidin-3-yl) isoindoline-1,3-dione] was tested, and the “substrate protein remaining % IKZF1” value (IKZF1) was “B (B represents substrate protein remaining % > 50%)”, the “substrate protein remaining % IKZF3” value (IKZF3) was “A (A represents 0% ≤ substrate protein remaining % ≤ 50%)” and the “substrate protein remaining % GSPT1” value (GSPT1) was “A (A represents 0% ≤ substrate protein remaining % ≤ 50%)”.

With `O=C1CCC(N2C(=O)c3ccc(CN4CC5CN(C(c6ccccc6)c6ccccc6)CC5C4)cc3C2=O)C(=O)N1` (stereo not drawn) [GT-06053, 5-((5-benzhydrylhexahydropyrrolo[3,4-c]pyrrol-2 (1H)-yl)methyl)-2-(2,6-dioxopiperidin-3-yl) isoindoline-1,3-dione] the “substrate protein remaining % IKZF1” value (IKZF1) was “B (B represents substrate protein remaining % > 50%)”, the “substrate protein remaining % IKZF3” value (IKZF3) was “B (B represents substrate protein remaining % > 50%)” and the “substrate protein remaining % GSPT1” value (GSPT1) was “A (A represents 0% ≤ substrate protein remaining % ≤ 50%)”.

With `O=C1CCC(N2C(=O)c3ccc(C(=O)N4CC5CN(C(c6ccccc6)c6ccccc6)CC5C4)cc3C2=O)C(=O)N1` (stereo not drawn) [GT-06068, 5-(5-benzhydryloctahydropyrrolo[3,4-c]pyrrole-2-carbonyl)-2-(2,6-dioxopiperidin-3-yl) isoindoline-1,3-dione] the “substrate protein remaining % IKZF1” value (IKZF1) was “B (B represents substrate protein remaining % > 50%)”, the “substrate protein remaining % IKZF3” value (IKZF3) was “B (B represents substrate protein remaining % > 50%)” and the “substrate protein remaining % GSPT1” value (GSPT1) was “A (A represents 0% ≤ substrate protein remaining % ≤ 50%)”.

For `O=C1CCC(N2C(=O)c3ccc(CN4CCN(C(c5ccccc5F)c5ccccc5F)CC4)cc3C2=O)C(=O)N1` (stereo not drawn) [GT-06088, 5-((4-(bis(2-fluorophenyl)methyl)piperazin-1-yl)methyl)-2-(2,6-dioxopiperidin-3-yl) isoindoline-1,3-dione], the “substrate protein remaining % IKZF1” value (IKZF1) was “B (B represents substrate protein remaining % > 50%)”, the “substrate protein remaining % IKZF3” value (IKZF3) was “B (B represents substrate protein remaining % > 50%)” and the “substrate protein remaining % GSPT1” value (GSPT1) was “A (A represents 0% ≤ substrate protein remaining % ≤ 50%)”.

In the case of `C[C@@H]1CN(C(c2ccccc2)c2ccccc2)CCN1C(=O)c1ccc2c(c1)C(=O)N(C1CCC(=O)NC1=O)C2=O` (stereo partly drawn) [GT-06094, 5-((R)-4-benzhydryl-2-methylpiperazine-1-carbonyl)-2-(2,6-dioxopiperidin-3-yl) isoindoline-1,3-dione], the “substrate protein remaining % IKZF1” value (IKZF1) is reported as “B (B represents substrate protein remaining % > 50%)”, the “substrate protein remaining % IKZF3” value (IKZF3) is reported as “B (B represents substrate protein remaining % > 50%)” and the “substrate protein remaining % GSPT1” value (GSPT1) is reported as “A (A represents 0% ≤ substrate protein remaining % ≤ 50%)”.

For `O=C1CCC(N2C(=O)c3ccc(CN4CCN(C(c5ccccc5)c5ccccc5)CC4C(F)(F)F)cc3C2=O)C(=O)N1` (stereo not drawn) [GT-06099, 5-((4-benzhydryl-2-(trifluoromethyl)piperazin-1-yl)methyl)-2-(2,6-dioxopiperidin-3-yl) isoindoline-1,3-dione], the “substrate protein remaining % IKZF1” value (IKZF1) was “B (B represents substrate protein remaining % > 50%)”, the “substrate protein remaining % IKZF3” value (IKZF3) was “B (B represents substrate protein remaining % > 50%)” and the “substrate protein remaining % GSPT1” value (GSPT1) was “A (A represents 0% ≤ substrate protein remaining % ≤ 50%)”.
